Assay results published in patent US20100003223A1, “METHOD FOR THE PRODUCTION OF MULTICOMPONENT STEM CELLS, RELATIVE KITS AND USES IN THE MEDICAL FIELD” (Metapontium Agrobios S.R.L., priority 2006, published 2010).

Experiments:
[1] = tested on: adipose cells; assay: Cell growth determination by BrdU incorporation; type: cell-based, human; conditions: adipose cells treated
[2] = tested on: mature adipose cells; assay: Morphological analysis of treated cultures by optical (phase contrast) microscopy
Description: Human pre-adipocytes and embryonic cell lines 3T3-L1 were sown at a density of 5×10^3 cells/cm^2 and cultivated in Petri plates in a proliferative medium (DMEM-F12, 10% Fetal Calf Serum (FCS), 1% antibiotic-fungizone (AF)) until the maximum cell confluence is reached. The differentiative induction is obtained by 48 hour treatment in specific medium consisting of DMEM, 10% Fetal Bovine Serum (FBS), 1 AF and specific differentiating factors (insulin, isobutylmethylxanthine, dexamethasone, indomethacin). The mature differentiated form (univacuolar phenotype) is reached after culture of 7-10 days in maintenance medium, free of adipogenic inductive agents. Immunofluorescence studies verify the expression of leptin, a hormone typically expressed by adipocytes in adult phase.
The mature adipose cells were maintained in a culture with DMEM, 10% FBS, 1 AF for two weeks, under continuous stimulation of 5′ Azacytidine at molar concentrations of 0.1 μM, 1 μM, 10 M, 100 μM, 125 μM, 150 μM, 175 μM, 250 μM.

[3] = tested on: adipocytes; assay: Determination of cell apoptosis (TACS Klenow In Situ Apoptotic Detection kit); type: cell-based, human
[4] = tested on: late-phase adipogenic markers (leptin, GLUT-4); assay: Semiquantitative PCR / RT-PCR of adipogenic marker expression; type: cell-based, human; conditions: preliminary results; FIG. 1: Ob gene (leptin), 175 μM
Description: In order to amplify the cDNA obtained from the 5-Aza cultures treated, the following were used: • Eppendorf thermocycler Amplifier; • Specific primers designed with the help of the PrimerQuest program (http://biotools.idt.com) and Nucleotide database consultation (http://www.ncbi.nlm.nih.gov) and BLAST (Basic Local Alignment Search Tool) (http://www.ncbi.nlm.nih.gov/BLAST/).
The primers were purchased from New England Biolabs.
Amplification conditions: 95° C. for 10 minutes (initial denaturation), 30 cycles of 95° C. for 30 seconds (denaturation), 52° C. for 45 seconds (annealing), 72° C. for 45 seconds (extension), 72° C. for 10 minutes (final extension). The reaction mixture was prepared with 1 μl of cDNA, 1 μl of dNtPs Mix (10 mM), 1.25 μl of MgCl2 solution (25 mM), 1.25 μl of buffer 10×, 0.2 μl of Ampli Taq Gold (5U μl) (Applied Biosystem), 1 μl of specific sense primer and 1 μl of antisense primer (10 μM), […] of H2O RNase free in a final volume of 12.5 μl.
The expression of the late-phase adipogenic markers (leptin, GLUT-4), precocious-phase markers (PPAR-γ, CEBP-α) and markers typical of the undifferentiated embryonic state (OCT4, SOX2, NANOG, SSEA-1, alkaline phosphatase) was evaluated by means of PCR and RT-PCR.

[5] = tested on: embryoid bodies; conditions: 1 μM, 6 hours; cited from earlier work

In the case of Nc1ncn([C@@H]2O[C@H](CO)[C@@H](O)[C@H]2O)c(=O)n1 [5-Azacytidine, 5′ Aza 2′ cytidine], the “cell proliferation by incorporated BrdU” value [1] is reported as “Cell proliferation is observed”, the “apoptosis of treated cultures (FIG. 7)” value ([2]; 250 μM) is reported as “a high apoptotic degree is observed” and the “cell damage and/or cell proliferation (FIG. 8)” value ([2]; doses ≦0.1 μM) is reported as “no signs of cell damage and/or cell proliferation”. For the same compound, the “morphology of the plate” value ([2]; mainly at 1-10 μM and higher than 100 μM, 10 days of treatment, preliminary results) was “a change in the morphology of the plate”, the apoptotic phenomena ([3]; 125 μM, 25 hours after treatment) was 15% and the apoptotic phenomena ([3]; 125 μM, 48 hours after treatment) was 15%. For the same compound, the apoptotic phenomena ([3]; 125 μM, 72 hours after treatment) was 10%, the apoptotic phenomena ([3]; 150 μM, 25 hours after treatment) was 22% and the apoptotic phenomena ([3]; 150 μM, 48 hours after treatment) was 28%. It also gave an apoptotic phenomena ([3]; 150 μM, 72 hours after treatment) of 10%, an apoptotic phenomena ([3]; 175 μM, 25 hours after treatment) of 38% and an apoptotic phenomena ([3]; 175 μM, 48 hours after treatment) of 41%. The apoptotic phenomena ([3]; 175 μM, 72 hours after treatment) was 10%, the “expression of the differentiative late-phase adipogenic markers” value [4] was “a reduction in the expression” and the “colony growth process and sensitivity to LIF” value [5] was “re-established the colony growth process typical of stem cells and the sensitivity to LEUKEMIA INHIBITORY FACTOR (LIF)”.
